Reference: patent US20110217394A1, “Iridoid Based Formulations” (priority 2000, published 2011)

What was measured:
E. coli PQ37 [1] = experiment: Anti-genotoxicity test (SOS-chromotest with 4NQO, Example Three); type: cell-based; conditions: for reduction in genotoxicity: 250 μg iridoid plus 1.25 μg mL^-1 4NQO; for induction factor of 4NQO plus iridoid compared with vehicle blank: 250 μg mL^-1 iridoid plus 1.25 μg mL^-1 4NQO
Procedure: The primary DNA damage test was performed again, similar to the method described above. […] Induction factors were calculated in the same manner as described above.

mammalian cells = conditions: cited from earlier work
E. coli PQ37 [2] = experiment: Primary DNA damage test (SOS-chromotest); type: cell-based; conditions: for mean induction factor: 1000 μg mL^-1, less than two indicates absence of genotoxic activity; for induction of SOS repair: all concentrations tested, 7.81-1000 μg mL^-1
Procedure: The SOS-chromotest in E. coli PQ37 was used to determine the potential for DAA and AA to induce primary DNA damage. This test was carried out according to the previously developed method (Fish et al., 1987). […] E. coli PQ37 was incubated in LB medium in a 96-well plate at 37° C. in the presence of DAA or AA for 2 hours. The DAA and AA concentrations tested were 7.81, 15.6, 31.2, 62.5, 125, 250, 500, and 1000 μg mL^−1. Samples were evaluated in triplicate. Following incubation with the samples, 5-bromo-4-chloro-3-indolyl-β-D-galactopyranoside was added to the wells to detect β-galactosidase enzyme activity, which is induced during SOS repair of damaged DNA. Nitrophenyl phosphate is also added to the wells to measure alkaline phosphatase activity, an indicator of cell viability. The samples were again incubated and the absorbances of the samples, blanks and controls were measured at 410 and 620 nm with a microplate reader. […] The induction factor of each material was calculated by dividing the absorbance of the sample at 620 nm by that of the blank, while also correcting for cell viability. Induction factors less than two indicate an absence of genotoxic activity.

[3] = HPLC-PDA quantitation of iridoids (DAA, AA), with method validation, precision and stability assays; conditions: fresh noni juice; for Amount detected, Inter-day: inter-day precision and stability assay over 3 consecutive days; for Amount detected, Day 1 / Amount detected, Day 2 / Amount detected, Day 3: intra-day precision and stability assay; for Amount detected, Day 1: n = 3, Day 1; for Amount detected, Day 2: n = 3, Day 2; for Amount detected, Day 3: n = 3, Day 3
Text: Acetonitrile (MeCN), methanol (MeOH), and water (H2O) of HPLC grade were obtained from Sigma-Aldrich (St. Louis, Mo., USA). Formic acid of analytical grade was purchased from Spectrum Chemical Mfg. Corp. (New Brunswick, N.J., USA). The chemical standard deacetylasperulosidic acid (DAA, 1) and asperulosidic acid (AA, 2) were isolated from noni fruits in our laboratory. […] They were accurately weighed and then dissolved in an appropriate volume of MeCN to produce corresponding stock solutions. The working standard solution of 1 and 2 for the calibration curve was prepared by diluting the stock solution with MeOH in seven concentration increments ranging from 0.00174-1.74 and 0.0016-0.80 mg/mL, respectively. All stock and working solutions were maintained at […] in a refrigerator. The calibration curves of standards were plotted after linear regression of the peak areas versus concentrations.
(§1) Tahitian noni fruit puree as used in this example is the mashed whole fruit, excluding seeds and pericarp. The fruits were originally collected from the Tahitian Islands. One gram of the puree was diluted with 5 mL of H2O—MeOH (1:1) and mixed thoroughly. The solution was then filtered through a nylon microfilter (0.45-μm pore size); the solution was collected into a 5 mL volumetric flask for HPLC analysis. Four batches of noni puree were analyzed in the experiments. Voucher specimens of the noni fruit puree are deposited in our lab. To test iridoid stability, a DAA solution of 0.5 mg/mL was prepared with MeOH. This solution was heated in a water-bath at 90° C. for 1 min, cooled to room temperature, and analyzed by HPLC.
Chromatographic separation was performed on a Waters 2690 separations module coupled with 996 PDA detectors, and equipped with an Atlantis C18 column (4.6 mm×250 mm; 5 Waters Corporation, Milford, Mass., USA). The pump was connected to two mobile phases: A; MeCN, and B; 0.1% formic acid in H2O (v/v), and eluted at a flow rate of 0.8 mL/min. The mobile phase was programmed consecutively in linear gradients as follows: 0-5 min, 0% A; and 40 min, 30% A. The PDA detector was monitored in the range of 210-400 nm (235 nm was selected for quantitative analysis). The injection volume was 10 μL for each of the sample solutions. The column temperature was maintained at 25° C. Data collection and integration were performed using Waters Millennium software revision 32.
The limits of detection (LOD) and quantitation (LOQ) were defined as the lowest concentrations of analytes in a sample that can be detected and quantified. These LOD and LOQ limits were determined on the basis of signal-to-noise ratios (S/N) of 3:1 and 10:1, respectively. The working solutions of standards 1 and 2 for LOD and LOQ were prepared by diluting them sequentially. The intra- and inter-day precision assays, as well as stability tests were performed by following the method applied to the sample analysis for 3 consecutive days. Accuracy of the method (recovery) was assessed by the recovery percentage of iridoids 1 and 2 in the spiked samples. The noni fruit puree samples were spiked with standards at 3 different concentrations (equivalent to 50%, 100% and 150% concentration of 1 and 2 in the samples). The recovery percentage was calculated using the ratio of concentration detected (actual) to those spiked (theoretical). Variation was evaluated by the relative standard deviation (RSD) of triplicate injections in the HPLC experiments.
The iridoid content, inclusive of deacetylasperulosidic acid (DAA) and asperulosidic acid (AA), was determined by HPLC, according to a previously reported method (Deng et al., 2010 b). Other significant secondary metabolites, such as scopoletin, rutin, and quercetin, were also determined by HPLC (Deng et al., 2010 a).
HPLC grade acetonitrile (MeCN), methanol (MeOH), and water (H2O) were obtained from Sigma-Aldrich (St. Louis, Mo., USA). Analytical grade formic acid was purchased from Spectrum Chemical Mfg. Corp. (New Brunswick, N.J., USA). […]

[4] = Thermal stability of DAA under pasteurization conditions (HPLC); type: physicochemical; conditions: 90° C. at pH 3.3 for one minute
Procedure: as §1
Noni fruit juice is usually subjected to heat pasteurization during commercial processing. Pasteurization is usually employed in noni industry, i.e., heating up to 87.7° C. for several seconds. In this study, the stability of DAA was conducted. DAA was exposed to 90° C. at pH 3.3 for one minute to determine its thermal stability at acidic conditions.

E. coli PQ37 [5] = type: cell-based; conditions: 250 ug mL^-1 iridoid plus 1.25 ug mL^-1 4NQO; blank = 1
Procedure: The SOS-chromotest in E. coli PQ37 was used to determine the potential for iridoids in noni fruit from French Polynesia to prevent primary DNA damage. E. coli PQ37 was incubated at 37° C. in the presence of deacetylasperulosidic acid and asperulosidic acid at a concentration of 250 ug mL^−1 in a 96-well plate. Replicate samples were evaluated. […] Following incubation with the samples, 5-bromo-4-chloro-3-indolyl-β-D-galactopyranoside was added to the wells to detect β-galactosidase enzyme activity, which is induced during SOS repair of damaged DNA. The samples were again incubated for 90 minutes and the absorbances of the samples, blank and positive control were measured at 620 nm with a microplate reader. The β-galactosidase enzyme activity induction factor of each material was calculated by dividing the absorbance of the sample at 620 nm by that of the blank, while also correcting for cell viability.

[6] = 7.81 μg mL^−1, E. coli PQ37, 2 hours
[7] = 15.6 μg mL^−1, E. coli PQ37, 2 hours
[8] = 31.2 μg mL^−1, E. coli PQ37, 2 hours
[9] = 62.5 μg mL^−1, E. coli PQ37, 2 hours
[10] = 125 μg mL^−1, E. coli PQ37, 2 hours
[11] = 250 μg mL^−1, E. coli PQ37, 2 hours
[12] = 500 μg mL^−1, E. coli PQ37, 2 hours
[13] = 1000 μg mL^−1, E. coli PQ37, 2 hours

SMILES: CC(=O)OCC1=C[C@H](O)[C@@H]2C(C(=O)O)=CO[C@@H](O[C@@H]3O[C@H](CO)[C@@H](O)[C@H](O)[C@H]3O)[C@H]12 [AA, asperulosidic acid]
- reduction in genotoxicity (E. coli PQ37 [1]): 99.22%
- induction factor of 4NQO plus iridoid compared with vehicle blank (E. coli PQ37 [1]): no statistical difference from that of the vehicle blank
- genotoxicity in mammalian cells (mammalian cells): non-genotoxic
- Induction factor (E. coli PQ37 [2]; [6]): 1.01 ± 0.05
- Induction factor (E. coli PQ37 [2]; [7]): 1.04 ± 0.11
- Induction factor (E. coli PQ37 [2]; [8]): 0.99 ± 0.06
- Induction factor (E. coli PQ37 [2]; [9]): 1.04 ± 0.13
- Induction factor (E. coli PQ37 [2]; [10]): 1.02 ± 0.08
- Induction factor (E. coli PQ37 [2]; [11]): 1.11 ± 0.16
- Induction factor (E. coli PQ37 [2]; [12]): 1.07 ± 0.04
- mean induction factor (E. coli PQ37 [2]): 1.09
- Induction factor (E. coli PQ37 [2]; [13]): 1.09 ± 0.03
- induction of SOS repair (E. coli PQ37 [2]): did not induce any SOS repair at a frequency significantly above that of the blank
- Amount detected, Inter-day [3]: 0.281 mg/mL
- Amount detected, Day 1 [3]: 0.276 mg/mL
- Amount detected, Day 2 [3]: 0.281 mg/mL
- Amount detected, Day 3 [3]: 0.287 mg/mL

SMILES: O=C(O)C1=CO[C@@H](O[C@@H]2O[C@H](CO)[C@@H](O)[C@H](O)[C@H]2O)[C@@H]2C(CO)=C[C@H](O)[C@H]12 [DAA, deacetylasperulosidic acid]
- reduction in genotoxicity (E. coli PQ37 [1]): 98.96%
- induction factor of 4NQO plus iridoid compared with vehicle blank (E. coli PQ37 [1]): no statistical difference from that of the vehicle blank
- genotoxicity in mammalian cells (mammalian cells): non-genotoxic
- Induction factor (E. coli PQ37 [2]; [6]): 0.93 ± 0.13
- Induction factor (E. coli PQ37 [2]; [7]): 1.03 ± 0.16
- Induction factor (E. coli PQ37 [2]; [8]): 1.04 ± 0.08
- Induction factor (E. coli PQ37 [2]; [9]): 1.05 ± 0.07
- Induction factor (E. coli PQ37 [2]; [10]): 1.00 ± 0.08
- Induction factor (E. coli PQ37 [2]; [11]): 1.06 ± 0.06
- Induction factor (E. coli PQ37 [2]; [12]): 1.03 ± 0.02
- mean induction factor (E. coli PQ37 [2]): 1.07
- Induction factor (E. coli PQ37 [2]; [13]): 1.07 ± 0.14
- induction of SOS repair (E. coli PQ37 [2]): did not induce any SOS repair at a frequency significantly above that of the blank
- thermal stability (DAA content before and after heating) [4]: no difference in the DAA contents before and after heating
- β-galactosidase enzyme activity induction factor of iridoid plus 4NQO (mean±standard deviation) (E. coli PQ37 [5]): 0.98±0.02
- Amount detected, Inter-day [3]: 1.297 mg/mL
- Amount detected, Day 1 [3]: 1.308 mg/mL
- Amount detected, Day 2 [3]: 1.291 mg/mL
- Amount detected, Day 3 [3]: 1.291 mg/mL
